# From PMC8274516, “Identification of imidazo[4,5-c]pyridin-2-one derivatives as novel Src family kinase inhibitors against glioblastoma” (Journal of Enzyme Inhibition and Medicinal Chemistry, 2021)
# Where two headings read alike, the source gives them in different places.
# What was measured:
# Fyn = target: T1, Fyn (Homo sapiens, UniProt P06241); assay: HTRF KinEASE-TK enzymatic assay, Fyn; type: biochemical; details: for Inhibition (1 μM, %) Fyn: compound at 1 μM; for Inhibition (1 μM, %) Fyn / IC50: ATP at Km (51.76 µM), average of two independent experiments
# T1 construct: purchased Carna Biosciences 08-168
# Src = target: T2, Src (Homo sapiens, UniProt P12931); assay: HTRF KinEASE-TK enzymatic assay, Src; type: biochemical; details: for Inhibition (1 μM, %) Src: compound at 1 μM, ATP at Km (16 µM), average of two independent experiments
# T2 construct: purchased Carna Biosciences 08-173
# U251 GBM cell line = assay: Cell proliferation inhibition assay (MTT), U251; type: cell-based; details: mean of at least three independent experiments, read-out: Antiproliferative activity IC50, U251
# Protocol: (§1) GBM cell lines U87, U251, and T98G (purchased from the American Type Culture Collection Company, Manassas, VA) were cultured in Roswell Park Memorial Institute (RPMI) 1640 medium containing 10% foetal bovine serum (FBS) at 37 °C in 5% CO2 incubator. The U87-EGFRvIII cell line established with EGFRvIII, kindly provided by Professor Xingmei Zhang, and grown in DMEN supplement with 10% FBS and […] G418 (Sigma-Aldrich, St. Louis, MO) at 37 °C in 5% CO2 incubator. The anti-proliferative activities of the compounds to be tested against four glioblastoma cell lines were determined by standard MTT method. In order to determine the anti-proliferation effect of the tested compounds, four cell lines were inoculated at a density of 2 × 10^3 cells/ml and treated with compounds at a concentration of 1–100 µM. The cells were co-incubated with different concentrations of the tested drugs for 72 h, and 10% MTT solution diluted in 100 µL medium was added. After 4 h of incubation, the absorbance value of each hole was measured at […] with an enzyme-linked immunosorbent assay plate reader. All compounds were tested three times in each cell line.
# T98G GBM cell line = assay: Cell proliferation inhibition assay (MTT), T98G; type: cell-based; details: 72 h, mean of at least three independent experiments, read-out: Antiproliferative activity IC50, T98G
# Protocol: as §1
# [1] = tested on: U87-EGFRvIII GBM cell line; assay: Cell proliferation inhibition assay (MTT), U87-EGFRvIII; type: cell-based; details: 72 h, mean of at least three independent experiments, read-out: Antiproliferative activity IC50, U87-EGFRvIII
# U87 GBM cell line = assay: Cell proliferation inhibition assay (MTT), U87; type: cell-based; details: 72 h, mean of at least three independent experiments, read-out: Antiproliferative activity IC50, U87
# Protocol: as §1
# T1 sequence (P06241 whole entry): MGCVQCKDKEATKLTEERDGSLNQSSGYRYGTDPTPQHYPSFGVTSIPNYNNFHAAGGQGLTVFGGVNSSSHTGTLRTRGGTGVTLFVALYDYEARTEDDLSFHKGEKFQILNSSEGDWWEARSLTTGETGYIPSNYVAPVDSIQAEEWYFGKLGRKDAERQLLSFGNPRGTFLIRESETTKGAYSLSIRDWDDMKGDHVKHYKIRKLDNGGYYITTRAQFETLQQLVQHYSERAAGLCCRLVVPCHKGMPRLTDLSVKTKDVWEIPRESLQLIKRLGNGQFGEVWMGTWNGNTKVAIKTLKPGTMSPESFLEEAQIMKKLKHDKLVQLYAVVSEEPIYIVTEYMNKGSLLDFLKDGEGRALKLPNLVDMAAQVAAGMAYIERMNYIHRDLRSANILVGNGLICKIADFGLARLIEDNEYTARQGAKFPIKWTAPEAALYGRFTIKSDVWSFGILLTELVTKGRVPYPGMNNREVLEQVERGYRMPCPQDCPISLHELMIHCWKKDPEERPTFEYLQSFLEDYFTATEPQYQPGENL
Molecule,inhibition at 1 µM (Fyn) [%],inhibition at 1 µM (Src) [%],other results
"CC(C)(C)n1c(=O)n(-c2ccc(Cl)cc2)c2c(N)nccc21 [Compound 1f, 4-amino-1-(tert-butyl)-3-(4-chlorophenyl)-1H-imidazo[4,5-c]pyridin-2(3H)-one]",62,84,
"Nc1nccc2c1n(-c1ccc(CO)cc1)c(=O)n2C1CCCC1 [Compound 1o, 4-amino-1-cyclopentyl-3-(4-(hydroxymethyl)phenyl)-1,3-dihydro-2H-imidazo[4,5-c]pyridin-2-one]",20,19,
"4-amino-3-(4-chlorophenyl)-1-(m-tolyl)-1H-imidazo[4,5-c]pyridin-2(3H)-one [Compound 1b]",,,"Inhibition (1 μM, %) Fyn (Fyn): 11%; Inhibition (1 μM, %) Src (Src): 54%"
"Nc1nccc2c1n(-c1ccc(Cl)cc1)c(=O)n2-c1ccccc1 [Compound 1a, 4-amino-3-(4-chlorophenyl)-1-phenyl-1H-imidazo[4,5-c]pyridin-2(3H)-one]",35,78,
"Nc1nccc2c1n(-c1ccc(C(F)(F)F)cc1)c(=O)n2C1CCCC1 [Compound 1m, 4-amino-1-cyclopentyl-3-(4-(trifluoromethyl)phenyl)-1,3-dihydro-2H-imidazo[4,5-c]pyridin-2-one]",-2,11,
"Nc1nccc2c1n(-c1ccc3[nH]ccc3c1)c(=O)n2C1CCCC1 [Compound 1r, 4-amino-1-cyclopentyl-3-(1H-indol-5-yl)-1,3-dihydro-2H-imidazo[4,5-c]pyridin-2-one]",30,84,
"CN(C)CCn1c(=O)n(-c2ccc(Cl)cc2)c2c(N)nccc21 [Compound 1h, 4-amino-3-(4-chlorophenyl)-1-(2-(dimethylamino)ethyl)-1H-imidazo[4,5-c]pyridin-2(3H)-one]",19,18,
"CC(C)Cn1c(=O)n(-c2ccc(Cl)cc2)c2c(N)nccc21 [Compound 1g, 4-amino-3-(4-chlorophenyl)-1-isobutyl-1H-imidazo[4,5-c]pyridin-2(3H)-one]",19,16,
"Nc1nccc2c1n(-c1ccc(Cl)cc1)c(=O)n2CCN1CCOCC1 [Compound 1j, 4-amino-3-(4-chlorophenyl)-1-(2-morpholinoethyl)-1H-imidazo[4,5-c]pyridin-2(3H)-one]",12,5,
"Nc1nccc2c1n(-c1ccc(Cl)cc1)c(=O)n2C1CCCC1 [Compound 1d, 4-amino-3-(4-chlorophenyl)-1-cyclopentyl-1,3-dihydro-2H-imidazo[4,5-c]pyridin-2-one]",90,96,"IC50 (Fyn): 240 nM; IC50 (U251 GBM cell line; Homo sapiens, U-251, 72 h): 33.3 ± 3.36 µM; IC50 (T98G GBM cell line; Homo sapiens, T98G): 20.6 ± 0.3 µM; IC50 [1]: 67.2 ± 3.2 µM; IC50 (U87 GBM cell line): 63.3 ± 10.5 µM; IC50 (Src): 190 nM"
"Nc1nccc2c1n(-c1ccc(Oc3ccccc3)cc1)c(=O)n2C1CCCC1 [Compound 1s, 4-amino-1-cyclopentyl-3-(4-phenoxyphenyl)-1,3-dihydro-2H-imidazo[4,5-c]pyridin-2-one]",90,93,"IC50 (Fyn): 210 nM; IC50 (U251 GBM cell line; 72 h): 24.6 ± 2.28 µM; IC50 (U251 GBM cell line; Homo sapiens, U-251, 72 h): 24.6 µM; IC50 (T98G GBM cell line): 16.4 ± 2.12 µM; IC50 (T98G GBM cell line; Homo sapiens, T98G): 16.4 µM; IC50 [1]: 50.5 µM; IC50 (U87 GBM cell line): 30.3 ± 0.84 µM; IC50 (Src): 150 nM"
"CC(C)(C)n1nc(-c2ccc(Cl)cc2)c2c(N)ncnc21 [PP2, reference compound]",,93,"IC50 (U251 GBM cell line; Homo sapiens, U-251, 72 h): 21.1 ± 2.16 µM; IC50 (T98G GBM cell line; Homo sapiens, T98G): 12.5 ± 2.37 µM; IC50 (U87 GBM cell line): 39.9 ± 6.91 µM"
"Nc1nccc2c1n(-c1ccc3c(c1)OCO3)c(=O)n2C1CCCC1 [Compound 1q, 4-amino-3-(benzo[d][1,3]dioxol-5-yl)-1-cyclopentyl-1H-imidazo[4,5-c]pyridin-2(3H)-one]",74,85,"IC50 (Fyn): 730 nM; IC50 (U251 GBM cell line; Homo sapiens, U-251, 72 h): 30 ± 0.93 µM; IC50 (T98G GBM cell line; Homo sapiens, T98G): 20.7 ± 0.67 µM; IC50 [1]: 69 ± 8.39 µM; IC50 (U87 GBM cell line): 47 ± 3.78 µM; IC50 (Src): 220 nM"
"N#Cc1ccc(-n2c(=O)n(C3CCCC3)c3ccnc(N)c32)cc1 [Compound 1n, 4-(4-amino-1-cyclopentyl-2-oxo-1,2-dihydro-3H-imidazo[4,5-c]pyridin-3-yl)benzonitrile]",44,45,
"Nc1nccc2c1n(-c1cccc(F)c1)c(=O)n2C1CCCC1 [Compound 1p, 4-amino-1-cyclopentyl-3-(3-fluorophenyl)-1,3-dihydro-2H-imidazo[4,5-c]pyridin-2-one]",19,66,
"Cc1ccc(-n2c(=O)n(C3CCCC3)c3ccnc(N)c32)cc1 [Compound 1k, 4-amino-1-cyclopentyl-3-(p-tolyl)-1,3-dihydro-2H-imidazo[4,5-c]pyridin-2-one]",65,88,
"4-amino-1-(3-bromophenyl)-3-(4-chlorophenyl)-1H-imidazo[4,5-c]pyridin-2(3H)-one [Compound 1c]",,,"Inhibition (1 μM, %) Fyn (Fyn): 31%; Inhibition (1 μM, %) Src (Src): 68%"
"COc1ccc(-n2c(=O)n(C3CCCC3)c3ccnc(N)c32)cc1 [Compound 1l, 4-amino-1-cyclopentyl-3-(4-methoxyphenyl)-1,3-dihydro-2H-imidazo[4,5-c]pyridin-2-one]",28,91,
"COCCn1c(=O)n(-c2ccc(Cl)cc2)c2c(N)nccc21 [Compound 1i, 4-amino-3-(4-chlorophenyl)-1-(2-methoxyethyl)-1H-imidazo[4,5-c]pyridin-2(3H)-one]",24,65,
"Nc1nccc2c1n(-c1ccc(Cl)cc1)c(=O)n2C1CCCCC1 [Compound 1e, 4-amino-3-(4-chlorophenyl)-1-cyclohexyl-1H-imidazo[4,5-c]pyridin-2(3H)-one]",76,88,"IC50 (Fyn): 580 nM; IC50 (U251 GBM cell line; Homo sapiens, U-251, 72 h): 36.1 ± 2.53 µM; IC50 (T98G GBM cell line; Homo sapiens, T98G): 20.1 ± 0.67 µM; IC50 [1]: > 100 µM; IC50 (U87 GBM cell line): 53.6 ± 2.51 µM; IC50 (Src): 73 nM"
